Measurements reported in article PMC10671498, “Antiproliferative and Cytotoxic Properties of Propynoyl Betulin Derivatives against Human Ovarian Cancer Cells: In Vitro Studies” (International Journal of Molecular Sciences, 2023).
Like-named read-outs stand apart in the source and are kept apart here.

Legend:
[1] = system: 18Co normal myofibroblasts; assay: SRB cell proliferation assay, 18Co normal myofibroblasts; format: cell-based; details: 18Co, Neg: negative in the concentration used
Description: Next, 18Co cells (ATCC No. CRL-1459™) were cultured in MEM medium containing HEPES buffer, 10% fetal bovine serum, 100 U/mL penicillin, and 100 μg/mL streptomycin (all from Sigma Aldrich).
(§1) Betulin 1 and its derivatives were dissolved in dimethyl sulfoxide (DMSO; Sigma Aldrich) as a 15 mM stock solution. Working solutions were prepared through the dilution of stock solutions with culture medium. The final DMSO concentration in culture media was adjusted to 0.2%. The effect of tested compounds on the proliferation of SK-OV-3 and OVCAR-3 cells was measured using the In Vitro Toxicology Assay Kit, Sulforhodamine B based (Sigma Aldrich). Cells were seeded in 96-well plates (Greiner Bio-One, Kremsmünster, Austria) at an initial density of 3 × 10^3 cells per well in 200 µL of culture medium. After 24 h of incubation, betulin 1 and its derivatives at a concentration range of 0.1 μM to 30 μM were added to the wells. Control cultures were treated with vehicle alone (0.2% DMSO). The incubation periods for cells with test compounds were 1 day, 3 days, and 5 days. After appropriate incubation periods, culture media were removed, and cells were fixed in 10% trichloroacetic acid solution for 60 min at 4 °C. After fixation, the TCA solution was removed, and the plates were washed three times with deionized water (300 μL/well) and dried. At the next step, cells were stained with 0.4% sulforhodamine B for 30 min. The excess dye was removed by washing three times with 1% (vol/vol) acetic acid. The protein-bound dye was dissolved in 200 μL 10 mM Tris base solution. Absorbance was measured at 570 nm and 690 nm (reference wavelength) using the MRX Revelation plate reader (Dynex Technologies, Chantilly, VA, USA).
(§2) GraphPad Prism 10.0.2 (GraphPad Software Inc., San Diego, CA, USA) software was used for calculations and the statistical analysis of the IC50 values (Table 1). IC50 was determined by using the “nonlinear regression” mode, and the “log(inhibitor) vs. normalised response—Variable slope” equation was chosen in GraphPad Prism software for calculations. The obtained data were normalized to run from 100% down to 0%, and logarithms of concentration were used. Graphs (Figure 2, Figure 3, Figure 4, Figure 5 and Figure 8, and Supplementary Figure S1) were also prepared using this software. In the case of the lack of normal distribution or homogeneity of variances, the remaining results were analyzed using a non-parametric Kruskal–Wallis test with multiple comparisons. Post hoc analysis was performed with the non-parametric equivalent of Tukey’s test. A p value of <0.05 was considered statistically significant. Otherwise, a one-way ANOVA followed by a Tukey’s post hoc test was applied. t-tests was used to perform pairwise comparisons between group means. Analysis was performed using Statistica 13.1 software (StatSoft, Tulsa, OK, USA).

[2] = system: OVCAR-3 cells; assay: DNA fragmentation assay (Cell Death Detection ELISA, cytoplasmic fraction), OVCAR-3; format: cell-based, human; details: OVCAR-3, 24 h; for DNA fragmentation (number of mono- and oligonucleosomes): 3 µM and 10 µM
Description: (§3) Fragmentation of genomic DNA was determined by means of the Cell Death Detection ELISAPLUS kit (Roche, Basel, Switzerland). This method rests on the immunoenzymatic detection of DNA–histone complexes in the cytoplasmic cell fraction or cell culture supernatants. Cells were plated and cultured in 96-well plates (Greiner Bio-One) at the initial density of 5 × 10^3 cells per well in 100 µL of culture medium. Cells were allowed to attach and grow for 1 day prior to the addition of test reagents. Then, the media were replaced with the working solutions (3 µM, 10 µM, 30 µM), and cells were exposed to compounds 2–6 for 24 h. In some cases, 5 µM cyclosporin A (CsA, an inhibitor of the mitochondrial permeability transition) was added to the cells 30 min before treatment with the betulin derivative. Subsequently, cells were incubated concomitantly with both compounds. After a 24 h incubation period, plates were centrifuged (200× g; 10 min), media were removed, and cells were lysed for 30 min at room temperature. At the next step, the lysates were again spun (200× g; 10 min), and 20 µL of supernatants (cytoplasmic fractions) was moved to the new 96-well streptavidin-coated plate. In one experiment, the presence of mono- and oligonucleosomes was determined in 20 µL samples of centrifuged culture supernatants (media) to detect the permeability of plasma membrane (considered as an indicator of cell necrosis). Then, the sandwich ELISA assay was fulfilled according to the manufacturer’s protocol. Absorbance was measured at 405 nm and 490 nm (reference wavelength), and the enrichment factor of the cytoplasmic (or supernatant) fraction in mono- and oligonucleosomes was calculated according to the formula: EF = absorbance of sample cells/absorbance of control cells.
(§4) A high EF index in the cytoplasmic fraction (resulting from DNA fragmentation while maintaining the tightness of cell membranes) is a typical indicator of the relatively early stage of apoptosis.

[3] = system: OVCAR-3 cells; assay: SRB cell proliferation assay, OVCAR-3; format: cell-based, human; details: for IC50: Homo sapiens
Description: OVCAR-3 cells (ATCC No. HTB-161™) were cultured in RPMI-1640 medium containing HEPES buffer (2.383 g/L), sodium bicarbonate (1.5 g/L), sodium pyruvate (0.11 g/L) supplemented with 20% fetal bovine serum, 10 µg/mL bovine insulin, 100 U/mL penicillin, and 100 μg/mL streptomycin (all from Sigma Aldrich).
as §1, §2

[4] = system: SK-OV-3 cells; assay: DNA fragmentation assay (Cell Death Detection ELISA, cytoplasmic fraction), SK-OV-3; format: cell-based, human; details: for DNA fragmentation (enrichment factor, internucleosomal DNA fragments): SK-OV-3, 24 h, 3, 10, 30 µM
Description: as §3, §4

[5] = system: OVCAR-3 cells; assay: LDH release assay, OVCAR-3; format: cell-based, human; details: OVCAR-3, 24 h
Description: In order to evaluate the cytotoxic effect, the release of LDH into the culture medium using the In Vitro Toxicology Assay Kit, Lactic Dehydrogenase Based (TOX7; Sigma Aldrich) was assessed. SK-OV-3 and OVCAR-3 cells were plated and cultured in 96-well plates (Greiner Bio-One) at the initial density of 5 × 10^3 cells per well in 100 µL of culture medium. The density of the cells was determined in the same manner as in the SRB assay. After 24 h, the media were replaced with the working solutions, which contained appropriate test compounds at concentrations of 3 μM, 10 μM, 30 μM, and control medium (0.2% DMSO). Cells were exposed to the test substances for 24 h. The background control comprised wells without cells with only control medium. To determine the maximal LDH release (high control), half of the control cultures were treated with lysis buffer. Wells with untreated cells were used as the low control of the assay. LDH activity in media was assessed according to the manufacturer’s protocol. The absorbance was measured at wavelengths of 490 nm and 690 nm (background), and the percentage of released enzyme was calculated for cells growing in the presence of compounds according to the formula:Cytotoxicity [%] = [(AT − AL)/(AH − AL)] × 100 where AT is the absorbance of treated wells; AL is low control; and AH is high control (maximal LDH release).
Cytotoxicity was expressed as a percentage of the released LDH calculated according to the difference between the absorbance of the treated and low control wells divided by the difference between the absorbance of the high control and low control wells.

SMILES | IC50 ([1]; 3 days treatment) | IC50 ([1]; 5 days treatment) | DNA fragmentation (number of mono- and oligonucleosomes) [2] | IC50 ([3]; OVCAR-3, 72 h) | IC50 ([3]; OVCAR-3, 120 h) | concentration at which antiproliferative activity (decrease in the number of cells) was evident ([3]; OVCAR-3, SRB assay, 0.1–30 µM) | DNA fragmentation (enrichment factor, internucleosomal DNA fragments) [4] | effect of CsA on compound-induced cell death, DNA fragmentation ([4]; SK-OV-3, 24 h, with 5 µM cyclosporin A added 30 min before) | cytotoxicity (released LDH) ([5]; all concentrations (3, 10, 30 μM)) | DNA fragmentation (enrichment factor) ([2]; 30 µM) | IC50 ([3]; 72 h, OVCAR-3, 3 days treatment, SRB assay, read-out: IC50) | IC50 ([3]; 120 h, OVCAR-3, 5 days treatment, SRB assay, read-out: IC50) | cytotoxicity (released LDH), loss of cell membrane integrity ([5]; 30 µM)
C#CC(=O)OC[C@]12CC[C@@H](/C(C)=C/P(=O)(OCC)OCC)C1C1CCC3[C@@]4(C)CC[C@H](O)C(C)(C)C4CC[C@@]3(C)[C@]1(C)CC2 (some centres unmarked) [Compound 6, E-29-diethoxyphosphoryl-28-O-propynoylbetulin] | Neg | Neg | slightly smaller effect than the lowest concentration of compound 4 | 0.68 µM | 0.59 µM | 1 µM | moderate increases | almost completely prevented | significant cytotoxic activity | – | – | – | –
C=C(C)[C@@H]1CC[C@]2(CO)CC[C@]3(C)[C@H](CC[C@@H]4[C@@]5(C)CC[C@H](O)C(C)(C)[C@@H]5CC[C@]43C)[C@@H]12 [Compound 1, lup-20(29)-ene-3β,28-diol, reference compound] | Neg | Neg | comparable to the control | – | – | – | significant increase | – | – | caused an increase in DNA fragmentation | 9.03 µM | 10.1 µM | loss of cell membrane integrity was also confirmed
